# Measured values from article PMC6527222 (PLoS ONE, 2019).
# Tests used:
# JB6 P+ cells [1] = assay: SRB cytotoxicity assay; assay type: cell-based, mouse; conditions: 72 hr; NT = no toxicity at any concentration tested
# Protocol: 96-well plates were seeded with 3x10^3 JB6 P+ cells per well and allowed to attach overnight. […] Cell viability was determined using Sulforhodamine B (SRB) assay from Sigma-Aldrich according to the manufacturer’s protocol. Cellular protein content was measured using a Bio-Tek μQuant plate reader with KCJunior software.
# Concentration-response curves were normalized so that the EGF positive control on each 96-well plate was set to 100% and the control wells on each plate were set to 0%. Toxicity assays (SRB and MTS) were normalized so that the control on each plate represented 100% viability. Normalization allowed for comparison of data over a range of JB6 P+ cell cultures, passages, and experimental time for the shRNA studies, as well as control for variation in the EGF response, and importantly allowed for a direct comparison to all concentration-response experiments including the toxicity assays. […] All group sizes were determined via previous studies to provide statistically meaningful data. In the soft agar assays, key results were repeated with different JB6 P+ cells to confirm the results. Similarly, the shRNA studies were conducted with three independent concentration-response curves with different JB6 P+ cell stocks. […] For two sample comparisons a t-test was utilized, and when comparing multiple samples a One-, Two-, or Three-Factor ANOVA followed by Tukey-Kramer post hoc test was utilized depending on the data. For all tests, statistical difference was donated when p < 0.05.
# The IΔ2*PSD is expressed in x-axis units (log [M]) as is an IC50 and it represents the first concentration where it is expected to observe a statistical decrease in the measured signal.
# Using the formula provided by GraphPad Prism or a straight line for the point-to-point graphs, the X-axis value for point Y was determined. The error is ascribed to this measurement via adding and subtracting the pooled standard deviation (PSD) to/from point Y generating point Y ± PSD. The two new points were then transformed to the X-axis units as was done for point Y creating an asymmetric error in sigmoidal plots. When the error was asymmetric, the larger error value was chosen to err on the conservative side. See S1 Fig for a pictoral explination of the method. The data is presented as IΔ2*PSD ± error.
# β2-AR [2] = system: β2-AR; design: method as in as printed in each cell (43-46, 48-54, 56-58); conditions: as described in the references; ref (43-46, 48-54, 56-58); cited from earlier work
# JB6 P+ cells [3] = assay: Anchorage-independent growth assay in soft agar (EGF-induced JB6 P+ colony formation); assay type: cell-based, mouse
# Protocol: Ten ng/mL EGF was used to promote the anchorage-independent growth of JB6 cells. […] Plates were incubated at 37°C, 5% CO2 for 14 days. Colonies with greater than ten cells were counted manually under a microscope. […] Normalization allowed for comparison of data over a range of JB6 P+ cell cultures, passages, and experimental time for the shRNA studies, as well as control for variation in the EGF response, and importantly allowed for a direct comparison to all concentration-response experiments including the toxicity assays. […] All group sizes were determined via previous studies to provide statistically meaningful data. In the soft agar assays, key results were repeated with different JB6 P+ cells to confirm the results. Similarly, the shRNA studies were conducted with three independent concentration-response curves with different JB6 P+ cell stocks. […] For two sample comparisons a t-test was utilized, and when comparing multiple samples a One-, Two-, or Three-Factor ANOVA followed by Tukey-Kramer post hoc test was utilized depending on the data. For all tests, statistical difference was donated when p < 0.05. […] The I[…]*PSD is expressed in x-axis units (log [M]) as is an IC50 and it represents the first concentration where it is expected to observe a statistical decrease in the measured signal. […] Using the formula provided by GraphPad Prism or a straight line for the point-to-point graphs, the X-axis value for point Y was determined. The error is ascribed to this measurement via adding and subtracting the pooled standard deviation (PSD) to/from point Y generating point Y ± PSD. The two new points were then transformed to the X-axis units as was done for point Y creating an asymmetric error in sigmoidal plots. When the error was asymmetric, the larger error value was chosen to err on the conservative side. See S1 Fig for a pictoral explination of the method. The data is presented as I[…]*PSD ± error.
# JB6 P+ cells [4] = assay: Soft agar assay with competitive adrenergic receptor antagonists; assay type: cell-based; conditions: Mus musculus, alone, CGP 12177 experiment (S2 Fig)
# Protocol: Ten ng/mL EGF was used to promote the anchorage-independent growth of JB6 cells. […] Plates were incubated at 37°C, 5% CO2 for 14 days. Colonies with greater than ten cells were counted manually under a microscope. Antagonists identified in our assays as ineffective at blocking EGF-mediated transformation of JB6 P+ cells yet displaying no or little toxicity were used as competitive antagonists towards carvedilol-mediated prevention of EGF-induced transformation of JB6 P+ cells.
# β2-AR [5] = conditions: given as negative log value; cited from earlier work
structure (smiles),measurement,setting,value
OC(CNCC(O)C1CCc2cc(F)ccc2O1)C1CCc2cc(F)ccc2O1 (stereo not drawn) [Nebivolol],SRB Assay Log IΔ2*PSD,JB6 P+ cells [1],-4.65 ± 0.19 log [M]
same,Pharmacological property at β2-AR,β2-AR [2],Biased agonist/ activates ERK [46]
same,IC50,"JB6 P+ cells [3]; 10 ng/mL EGF, soft agar, read-out: IC50, inhibition of EGF-mediated transformation",≤ 1000 nM
same,IC50,"JB6 P+ cells [3]; Mus musculus, 10 ng/mL EGF, soft agar, read-out: IC50, inhibition of EGF-mediated transformation",1090 nM
same,IC50,"JB6 P+ cells [3]; Mus musculus, 336 h, 10 ng/mL EGF, 14 days, negative log value, read-out: Soft Agar Assay Log IC50 (converted)",1100 nM
same,minimal effective concentration,"JB6 P+ cells [3]; Mus musculus, 336 h, 10 ng/mL EGF, 14 days, first concentration with expected statistical decrease, read-out: Soft Agar Assay Log IΔ2*PSD (converted)",0.479 µM
same,Emax,"JB6 P+ cells [3]; Mus musculus, efficacy of inhibition of colony formation, reported if non-toxic",96.5 ± 7.24%
same,IC50,JB6 P+ cells [4],347 nM
same,Log Kd at β2-AR,β2-AR [5],-7.91 ± 0.07 [47]
